Measured values from US20260355166A1, “2-SUBSTITUTED PIPERIDINE DERIVATIVES, PREPARATION METHODS AND MEDICINAL USES THEREOF” (JIANGSU HANSOH PHARMACEUTICAL GROUP CO., LTD., priority 2022, published 2026).

What was measured:
human Factor B [1] = target: T1, human Factor B (Homo sapiens, UniProt P00751); test: Target Residence Time of Factor B Inhibitors Determined by Surface Plasmon Resonance (SPR); format: binding; conditions: for Kd: immobilized recombinant human Factor B catalytic domain, room temperature; for t1/2 (binding half-life): t1/2=ln 2/kd; for residence time: tR=1/kd
T1 construct: Recombinant human Factor B catalytic domain (a.a. 470-764, C-terminal his-tagged, produced in-house); made in house
Excerpt: • 1. Recombinant human Factor B catalytic domain (a. a. 470-764, C-terminal his-tagged, produced in-house) • 2. PBS-P+ Buffer 10× (Cytiva, CAT #28995084) • 3. Series S Sensor Chip NTA (Cytiva, CAT #BR100532) • 4. Amine Coupling Kit (Cytiva, CAT #BR100050) • 5. DMSO (Millipore Sigma, CAT #34869-1L) • 6. Greiner 96 well plates, polypropylene (Sigma-Aldrich, CAT #M7310-100EA) • 7. Microplate Foil, 96-well (Cytiva, CAT #28975816) • 8. Biacore 8k (Cytiva)
Biacore 8k instrument was primed using 1×PBS-P+ buffer before docking a Cytiva NTA chip. Recombinant human Factor B catalytic domain were immobilized on a NTA chip to a level of about 5000 resonance units (RU) using 1×PBS-P+ buffer [[…] phosphate buffer with 2.7 mM KCl, 137 mM NaCl, and 0.05% (v/v) Tween-20]. The protein ligand was further crosslinked to sensorchip surface by amine coupling kit. Immobilization and binding experiment were performed at room temperature.
After changing buffer to 1×PBS-P+ buffer with 2% (v/v) DMSO, a pre-run was performed for a period of at least 30 min at a flow rate of 30 μl/min to obtain a stable surface. The kinetic constants of the compounds were determined by single-cycle kinetics with six consecutive injections (or multi-cycle kinetics with eight consecutive injections) with an increasing compound concentration in ranges of 0.8-200 nM, 12.5-400 nM, 4.1-1,000 nM or 41-10,000 nM depending on the potency. Single-cycle kinetics experiments were performed with an association time of 60 s per concentration and a dissociation time of 300 s (or a dissociation time of 120 s for multi-cycle kinetics experiments). A flow rate of 30 μl/min was used. A blank run with the same conditions was performed before the compound was injected.
The SPR sensorgrams were analyzed with Biacore Insight Evaluation Software by using a method of double referencing. The resulting curve was fitted with a 1:1 binding model. The kinetic constants (ka, kd, KD) of replicates were averaged. Residence time (tR) was calculated from the dissociation constant kd with the formula tR=1/kd. Binding half-life (t1/2) was calculated from the dissociation constant kd with the formula t1/2=ln 2/kd

[2] = test system: MAC (Membrane Attack Complex) formation; test: Inhibition of Human MAC Deposition (AP deposition assay, LPS activation, ELISA of C5b-9); format: biochemical; conditions: human serum, LPS coated plates, GVB buffer with MgCl2 and EGTA, C5b-9 detection
Experimental: To quantify the inhibitory effects of compounds on complement protein deposition following LPS activation of the alternative complement pathway, the AP deposition assay was employed. Test concentration of the compounds started at 11.1 μM or 3.70 µM and were diluted 3-fold in DMSO to produce 8 concentration points, with each concentration tested in technical triplicates. Human serum was combined with test compounds in GVB buffer containing 5 mM MgCl2 10 mM EGTA, and was added to LPS coated black Maxisorp plates. After a period of incubation, the plate was inverted, and ELISA detection of complement proteins bound to LPS was performed. A primary antibody that detected human C5b-9 was used, followed by a compatible HRP conjugated secondary antibody. Peroxidase activity was detected using the Quantablu Fluorogenic Peroxidase substrate kit and fluorescence was measured at 340 nm/435 nm using the i3x plate reader to determine the quantity of alternative pathway complement protein deposition.

[3] = test system: rabbit reticulocyte hemolysis; test: Inhibition of AP Dependent Hemolysis (rabbit cells in human serum); format: cell-based, human serum; rabbit erythrocytes; conditions: Oryctolagus cuniculus, GVB buffer with MgCl2 and EGTA, 37 °C, OD405
Experimental: To quantify the inhibitory effects of compounds on the hemolytic activity of the alternative complement pathway, the AP hemolytic assay was employed. Test concentration of the compounds started at 100 μM and were diluted 3-fold in DMSO to produce 8-11 concentration points, with each concentration tested in technical triplicates. Human serum was added to rabbit reticulocytes in a solution of GVB buffer with MgCl2 and EGTA. After a period of incubation at 37 °C, spontaneous lysis of rabbit erythrocytes due to serum AP complement activity was quantified using OD405 absorbance, measured using the i3x plate reader.

human Factor B [4] = target: T1, human Factor B; test: Factor B Binding Assay by TR-FRET; conditions: recombinant human Factor B catalytic domain 10 nM, 100 nM tracer, 1 h
Experimental: • 1. Recombinant human Factor B catalytic domain (a.a. 470-764, C-terminal his-tagged, produced in-house) • 2. 5× Kinase Buffer A (Thermo Fisher, CAT #PV3189) • 3. LANCE Eu-W1024 Anti-6×His Antibody (PerkinElmer, CAT #AD0401) • 4. Probe (TRFRET_tool 2, reported in WO 2015/009616)
[drawing 252] • 5. DMSO (Thermo Fisher Scientific) • 6. Compounds-10 mM stock in DMSO • 7. Victor Nivo multimode plate reader (PerkinElmer) • 8. OptiPlate-384, white opaque 384-well microplate (PerkinElmer, CAT #6007290)
Factor B binding affinity of each compound tested was determined using a time-resolved fluorescence resonance energy transfer (TR-FRET) technology. 10 nM recombinant his-tagged Factor B catalytic domain, varying concentrations of inhibitors, 4 nM LANCE Eu-W1024 Anti-6×His Antibody and 100 nM TRFRET_tool2 tracer was incubated in 1× Kinase Buffer A for 1 h. Measurement was performed in a reaction volume of 15 μL by adding 5 μL of the test compound, 5 μL of Factor B/antibody mixture and 5 μL of tracer into white opaque 384-well assay plates. The TR-FRET signal was read on a plate reader with an excitation wavelength of 340 nm and detection wavelengths of 615 and 665 nm. Binding affinity was determined for each compound by measuring TR-FRET signal at various concentrations of compound and plotting the relative fluorescence Emission Ratio (665 nm/615 nm) against the inhibitor concentration to estimate the IC50 from [Compound] vs Emission Ratio using the four parameters dose-response inhibition curve with a variable slope model in GraphPad Prism.
The binding affinity to recombinant Factor B catalytic domain of the compounds of the present invention was determined by the above assay, and IC50 values (nM) are shown in the following table.

[5] = Pharmacokinetic Studies in Rats; format: in vivo, brown Norway rats; conditions: plasma, rat
Experimental: Three-month-old brown Norway rats were administered the Example compound intravenously (0.5 mg/kg dose, formulation: 10% 1,2-Propanediol+25% (20% solutol HS 15 in water)+65% phosphate buffered saline at 0.1 mg/mL) and via oral gavage at 2 mg/kg dose as a clear solution (0.5% MC+0.5% Tween 80 in water at 1 mg/mL). Plasma was collected from rats per time point at 0.25, 0.5, 1, 6, and 24 h after administration. The concentrations of the test article were measured in plasma by HPLC-MS/MS, two individual plasma samples at each time point. Chromatographic separation was carried out on Waters BEH C18 Column (2.1×50 mm, 1.7 μm) column (MAC-MOD Analytical, Chadds Ford, PA), using a gradient elution method with water and acetonitrile, both containing 0.025% formic acid-1 mM NH4OAc. Mass spectrometric measurements in positive electrospray ionization were directed at quantifying the mass transition with [M+H]^+ as the precursor ion on API6500, triple quadruple mass spectrometer (Sciex, Framingham, MA). The relevant pharmacokinetic parameters were estimated using noncompartmental methods using WinNonlin (Enterprise, version 8.2).

T1 sequence (P00751 470-764): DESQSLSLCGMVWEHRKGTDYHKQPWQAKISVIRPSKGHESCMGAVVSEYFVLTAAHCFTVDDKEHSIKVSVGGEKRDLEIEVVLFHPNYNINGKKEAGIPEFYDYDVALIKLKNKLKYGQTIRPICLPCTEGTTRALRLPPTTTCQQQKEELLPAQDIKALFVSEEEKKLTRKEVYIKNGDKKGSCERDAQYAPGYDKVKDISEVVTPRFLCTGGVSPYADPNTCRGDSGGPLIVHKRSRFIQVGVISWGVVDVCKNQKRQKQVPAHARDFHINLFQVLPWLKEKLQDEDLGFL

Row | SMILES | Kd (human Factor B [1]) [nM] | t1/2 (binding half-life) (human Factor B [1]) [min] | residence time (human Factor B [1]) [min] | IC50 [2] [nM] | IC50 [3] [nM] | IC50 (human Factor B [4]) [nM] | bioavailability ([5]; 2 mg/kg, 0.5 mpk IV and 2 mpk PO) [%] | clearance ([5]; 0.5 mg/kg IV, read-out: 0.5 MPK IV arm CL) [mL/min/kg] | half-life ([5]; 2 mg/kg PO, read-out: T½ (h) - 2 MPK PO (converted)) [h] | AUC(0-t) ([5]; 0.5 mpk IV and 2 mpk PO (arm not printed in this column head), read-out: Plasma AUC0-last) [µM·h]
1 | COc1cc(C)c2[nH]ccc2c1CN1CCC2(CC(F)(F)C2)C[C@@]1(C)c1ccc(C(=O)O)cc1 (single isomer, unassigned) [Example 3 isomer 1] | 1.73 | 12.6 | 18.2 | 193 | 252 | 1.14 |  |  |  | 
2 | COc1cc(C)c2[nH]ccc2c1CN1CCC2(CC(F)(F)C2)C[C@]12CCCc1cc(C(=O)O)ccc12 (single isomer, unassigned) [Example 2 isomer 1] | 2.2 | 13.6 | 19.6 | 129 | 283 | 2.01 |  |  |  | 
3 | COc1cc(C)c2[nH]ccc2c1CN1CCC2(CC(F)(F)C2)CC12CCc1cc(C(=O)O)ccc12 (single isomer, unassigned) [Example 1 isomer 1, 3,3-difluoro-1′-((5-methoxy-7-methyl-1H-indol-4-yl)methyl)-2″,3″-dihydrodispiro[cyclobutane-1,4′-piperidine-2′,1″-indene]-5″-carboxylic acid] | 0.9 | 11.8 | 16.9 | 147 | 220 | 1.05 | 56 | 1.3 | 8.5 | 25.4
